Laboratory results published in patent US20090325975A1, “Use of compounds binding to the sigma receptor for the treatment of diabetes-associated pain” (priority 2005, published 2009).

How the values were obtained:
[1] = system: mechanical allodynia in STZ-induced mice; assay: von-Frey test, mechanical allodynia in STZ-induced diabetic mice; assay type: in vivo; conditions: paw withdrawal response to von-Frey filaments
From the text: The pancreatic β-cell cytotoxic agent STZ is widely used to induce diabetes in rodents. The glucosamine-nitrosourea compound STZ is taken up into the insulin-producing β-cells of the islets of Langerhan's via the GLUT-2 glucose transporter. The cytotoxic effect of STZ is mediated through a decrease in NAD levels, and the formation of intracellular free radicals leading to various toxic effects, including DNA-strand breaks (Schnedl et al., 1994). […] STZ-induced diabetic rodents show common features of human diabetes that include damage to the eye, kidney, blood vessels, and nervous system. Diabetic neuropathic pain occurs mainly due to the damage in the nervous system (Sima and Sugimoto, 1999).
Method: In the present study, diabetes is induced in mice by a single i.v. injection of STZ (200 mg/kg) as reported previously (Kamei et al., 1991; Rashid and Ueda, 2002). […] The plasma glucose level in the mice is measured in blood samples obtained from tail vein. […]
Thermal hyperalgesia and mechanical allodynia is measured at different time points (1-21 days) after STZ injection. Mechanical allodynia is measured using von-Frey filaments, a well-established method known by those skilled in the art, where the paw withdrawal response is measured. Similarly, thermal hyperalgesia is measured as the latency to paw withdrawal evoked by exposing the right hind paw to a thermal stimulus. […]

sigma-1 = sigma-1 (Homo sapiens, UniProt Q99720); conditions: cited from earlier work
Chain of sigma-1 (Q99720 whole entry): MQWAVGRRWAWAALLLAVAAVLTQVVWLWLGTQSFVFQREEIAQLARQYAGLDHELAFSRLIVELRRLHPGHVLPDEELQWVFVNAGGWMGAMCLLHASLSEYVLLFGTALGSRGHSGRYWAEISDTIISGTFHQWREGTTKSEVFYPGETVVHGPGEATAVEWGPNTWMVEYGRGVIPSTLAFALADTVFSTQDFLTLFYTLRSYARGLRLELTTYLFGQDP

sigma-2 = sigma-2 (Homo sapiens, UniProt Q5BJF2); conditions: cited from earlier work
Chain of sigma-2 (Q5BJF2 whole entry): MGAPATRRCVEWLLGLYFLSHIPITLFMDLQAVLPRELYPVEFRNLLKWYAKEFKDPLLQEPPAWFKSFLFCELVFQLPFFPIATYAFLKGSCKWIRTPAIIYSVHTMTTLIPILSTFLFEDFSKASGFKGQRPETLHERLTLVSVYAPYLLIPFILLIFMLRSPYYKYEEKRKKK

sigma receptor = conditions: result in words; cited from earlier work

Structure (SMILES) | effect on mechanical allodynia in the von-Frey test [1] | IC50 (sigma-1) | IC50 (sigma-2) | affinity to the sigma receptor (sigma receptor)
CN1CCN(CCc2ccc(Cl)c(Cl)c2)CC1 [BD-1063, 1-(3,4-dichlorophenethyl)-4-methylpiperazine] | significantly antagonizes mechanical allodynia | 30 nM | 800 nM | high affinity
CC(C)=CCN1CCC2(C)c3cc(O)ccc3CC1C2C (centres unmarked) [pentazocine] |  |  |  | very high affinity
